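48-hour exposure; five concentrations; linearly interpolated endpoints. Abbreviation: GI50, concentration required for 50% inhibition of growth.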 Activity calls are given as the source filed them. No stated cut-off is given here; in the data, active = GI50 up to about 1.1 µM and inactive = higher.
Experiments:
Assay in all cases: NCI-60 cell line screen, 48 h
[1] = tested on: DU-145
[2] = tested on: SK-MEL-28
[3] = tested on: OVCAR-4
[4] = tested on: UACC-62
[5] = tested on: RPMI-8226
[6] = tested on: A549
[7] = tested on: COLO 205
[8] = tested on: NCI-H522
[9] = tested on: KM12
[10] = tested on: SNB-19
[11] = tested on: MDA-MB-231
[12] = tested on: SNB-75
[13] = tested on: MCF7
[14] = tested on: RXF 393
[15] = tested on: A498
[16] = tested on: Malme-3M
[17] = tested on: HOP-62
[18] = tested on: CCRF-CEM
[19] = tested on: SW-620

Measured: GI50

CC(=O)O[C@H](C[C@@H](C)[C@H]1C(=O)[C@H](O)[C@@]2(C)C3CC[C@H]4C(C)(C)[C@@H](OC5OCC(O)C(O)C5O)CC[C@@]45C[C@@]35CC[C@]12C)[C@@H]1OC1(C)C (stereo not given in full)
inactive: [1] 19 µM | [2] 20.3 µM | [3] 22.4 µM | [4] 14.1 µM | [5] 12.4 µM | [6] 27.9 µM | [7] 22 µM | [8] 17.4 µM | [9] 22.2 µM | [10] 20.1 µM | [11] 16.1 µM | [12] 12.1 µM | [13] 17.9 µM | [14] 16.8 µM | [15] 15.9 µM | [16] 17.2 µM | [17] 12.1 µM | [18] 1.93 µM | [19] 32.4 µM

Oc1[nH]c(Nc2cccc(Cl)c2)nc2ncnc1-2
inactive: [1] 74.6 µM | [3] > 100 µM | [4] 63.7 µM | [5] > 100 µM | [6] > 100 µM | [7] > 100 µM | [8] > 100 µM | [9] > 100 µM | [10] > 100 µM | [11] 30.8 µM | [12] 30.5 µM | [13] > 100 µM | [14] > 100 µM | [15] > 100 µM | [16] > 100 µM | [17] 28.1 µM | [18] 71.4 µM | [19] > 100 µM

COc1c2ccsc2c(OC)c2ccsc12
inactive: [1] > 100 µM | [2] > 100 µM | [3] > 100 µM | [4] > 100 µM | [6] > 100 µM | [7] > 100 µM | [8] > 100 µM | [9] > 100 µM | [10] > 100 µM | [11] > 100 µM | [12] 42.6 µM | [13] > 100 µM | [14] 35.2 µM | [15] > 100 µM | [16] > 100 µM | [17] 40.2 µM | [18] > 100 µM | [19] > 100 µM

C/C=C1/CC(C)C(C)(O)C(=O)OCC2C(O)CN3CCC(OC1=O)C23 (stereo not given)
inactive: [1] > 100 µM | [3] > 100 µM | [4] > 100 µM | [5] > 100 µM | [6] > 100 µM | [7] > 100 µM | [8] 68.9 µM | [9] > 100 µM | [10] > 100 µM | [11] > 100 µM | [12] > 100 µM | [13] > 100 µM | [14] > 100 µM | [15] > 100 µM | [17] > 100 µM | [18] > 100 µM | [19] > 100 µM

CCOC(=O)Cc1nnc2n(-c3ccccc3)c(=O)c3ccccc3n12
inactive: [1] > 100 µM | [2] 55.7 µM | [3] > 100 µM | [4] 44.3 µM | [6] > 100 µM | [7] 83.8 µM | [8] 77.4 µM | [9] > 100 µM | [10] 74.8 µM | [11] > 100 µM | [12] 43.9 µM | [13] > 100 µM | [14] > 100 µM | [15] > 100 µM | [16] > 100 µM | [17] 62.4 µM | [18] > 100 µM | [19] > 100 µM

Source: ChEMBL document CHEMBL1201862, “PubChem BioAssay data set” (2004)
